The values that follow come from patent publication US10954214B2 (Janssen Pharmaceutica NV, priority 2016, dated 2021).

In experiment [1] the test system is IL6 secretion by OCI-LY3 ABC-DLBCL cells. The experiment is described as follows: Human IL6 Mesoscale assay (OCI-LY3). It is filed as cell-based. Particulars: Homo sapiens, 24 h. Put shortly:
(§1)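 100,000 cells/well treated with compound in 9 twofold steps from 15 μM to 58.6 nM (0.3% DMSO) for 24 h at 37° C; supernatant cytokine measured by MSD electrochemiluminescence sandwich immunoassay. DMSO wells set maximum signal, BTK inhibitor RN486 (30 nM to 131 pM) set maximum inhibition.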

Experiment [2] has as its target full-length MALT1 protein (Strep-MALT1(1-824)-His) (Homo sapiens (Human), UniProt Q9UDY8). The experiment is described as follows: MALT1 Biochemical Protease Assay (Ac-LRSR-AMC substrate). Particulars: 10 nM FL MALT1, 200 μM Ac-LRSR-AMC, 4 h at RT; read-out: MALT1_Biochemical activity (Ac-LRSR-amc) IC50. Put shortly:
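Fluorescence from AMC release off the quenched LRSR substrate was read after a 4 h reaction at RT. Values were normalised to no-enzyme and uninhibited controls and fitted for IC50 and Hill coefficient.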

Experiment [3] concerns IL10 secretion by OCI-LY3 ABC-DLBCL cells. Briefly: Human IL10 Mesoscale assay (OCI-LY3). The class given is cell-based. Particulars: Homo sapiens, 24 h. Put shortly:
as §1

Chain of full-length MALT1 protein (Strep-MALT1(1-824)-His) (Q9UDY8 whole entry): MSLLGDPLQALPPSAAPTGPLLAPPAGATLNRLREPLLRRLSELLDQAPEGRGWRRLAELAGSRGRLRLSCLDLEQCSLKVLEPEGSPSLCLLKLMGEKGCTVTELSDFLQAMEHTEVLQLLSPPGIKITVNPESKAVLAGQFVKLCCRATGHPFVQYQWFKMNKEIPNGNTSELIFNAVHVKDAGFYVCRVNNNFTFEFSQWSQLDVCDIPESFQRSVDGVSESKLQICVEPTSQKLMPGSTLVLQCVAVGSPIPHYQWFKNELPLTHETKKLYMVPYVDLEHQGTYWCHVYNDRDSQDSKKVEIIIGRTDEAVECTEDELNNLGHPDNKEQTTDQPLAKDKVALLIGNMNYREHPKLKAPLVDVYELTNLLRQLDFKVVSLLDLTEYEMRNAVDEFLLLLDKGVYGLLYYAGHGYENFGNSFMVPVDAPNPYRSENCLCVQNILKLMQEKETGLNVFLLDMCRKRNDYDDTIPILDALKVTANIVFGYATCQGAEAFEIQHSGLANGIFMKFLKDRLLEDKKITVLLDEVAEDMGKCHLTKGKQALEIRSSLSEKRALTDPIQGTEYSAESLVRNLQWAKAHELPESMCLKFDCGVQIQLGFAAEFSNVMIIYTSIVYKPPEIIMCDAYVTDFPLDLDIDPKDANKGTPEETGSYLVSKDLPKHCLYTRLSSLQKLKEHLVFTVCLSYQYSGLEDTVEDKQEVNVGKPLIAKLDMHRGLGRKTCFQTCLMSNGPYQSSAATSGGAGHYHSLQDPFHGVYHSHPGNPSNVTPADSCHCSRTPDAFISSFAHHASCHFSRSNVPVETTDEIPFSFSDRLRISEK

With `O=C(Nc1cnc(-n2nccn2)c(Cl)c1)c1cnn(-c2cnc(C3CCCO3)c3ccccc23)c1C(F)(F)F` (stereo not drawn) [Cpd 365, N-(5-chloro-6-(2H-1,2,3-triazol-2-yl)pyridin-3-yl)-1-(1-(tetrahydrofuran-2-yl)isoquinolin-4-yl)-5-(trifluoromethyl)-1H-pyrazole-4-carboxamide], the IC50 in experiment [1] is 25 nM; in experiment [2], 60 nM; in experiment [3], 24 nM.

As for `O=C(Nc1cnc(-n2nccn2)c(Cl)c1)c1cnn(-c2cnc(C3CCCO3)c3cccc(C4CCCO4)c23)c1C(F)(F)F` (stereo not drawn) [Cpd 366, 1-(1,5-bis(tetrahydrofuran-2-yl)isoquinolin-4-yl)-N-(5-chloro-6-(2H-1,2,3-triazol-2-yl)pyridin-3-yl)-5-(trifluoromethyl)-1H-pyrazole-4-carboxamide], the values for the half-inhibitory concentration (IC50) in experiment [1], in experiment [2] and in experiment [3] were 107 nM, 8910 nM and 89 nM, respectively.

As to `O=C(Nc1cnc(-n2nccn2)c(Cl)c1)c1cnn(-c2cnc(C3COCCO3)c3ccccc23)c1C(F)(F)F` (stereo not drawn) [Cpd 367, 1-(1-(1,4-dioxan-2-yl)isoquinolin-4-yl)-N-(5-chloro-6-(2H-1,2,3-triazol-2-yl)pyridin-3-yl)-5-(trifluoromethyl)-1H-pyrazole-4-carboxamide], the IC50 in experiment [1] was 115 nM; in experiment [2], 110 nM; in experiment [3], 98 nM.

For the compound `CCOC(C)c1ncc(-n2ncc(C(=O)Nc3cnc(-n4nccn4)c(Cl)c3)c2C(F)(F)F)c2ccccc12` (stereo not drawn) [Cpd 368, N-(5-chloro-6-(2H-1,2,3-triazol-2-yl)pyridin-3-yl)-1-(1-(1-ethoxyethyl)isoquinolin-4-yl)-5-(trifluoromethyl)-1H-pyrazole-4-carboxamide], the IC50 in experiment [1] turned out to be 170 nM; in experiment [2], 331 nM; in experiment [3] it was 79 nM.

As to `O=C1CCC(c2ncc(-n3ncc(C(=O)Nc4cnc(-n5nccn5)c(Cl)c4)c3C(F)(F)F)c3ccccc23)N1` (stereo not drawn) [Cpd 369, N-(5-chloro-6-(2H-1,2,3-triazol-2-yl)pyridin-3-yl)-1-(1-(5-oxopyrrolidin-2-yl)isoquinolin-4-yl)-5-(trifluoromethyl)-1H-pyrazole-4-carboxamide], the half-inhibitory concentration (IC50) in experiment [1] came to 34 nM; in experiment [2] it was 155 nM; in experiment [3], 29 nM.

Take `O=C(Nc1cnc(-n2nccn2)c(Cl)c1)c1cnn(-c2cccc3nc(C4CCCO4)ccc23)c1C(F)(F)F` (stereo not drawn) [Cpd 372, N-(5-chloro-6-(2H-1,2,3-triazol-2-yl)pyridin-3-yl)-1-(2-(tetrahydrofuran-2-yl)quinolin-5-yl)-5-(trifluoromethyl)-1H-pyrazole-4-carboxamide]: the IC50 in experiment [1] was found to be 12 nM; in experiment [2], 2000 nM; in experiment [3], 12 nM.

Consider `CN(C=O)Cc1ncc(-n2ncc(C(=O)Nc3cnc(-n4nccn4)c(Cl)c3)c2C(F)(F)F)c2ccccc12` [Cpd 373, N-(5-chloro-6-(2H-1,2,3-triazol-2-yl)pyridin-3-yl)-1-(1-((N-methylformamido)methyl)isoquinolin-4-yl)-5-(trifluoromethyl)-1H-pyrazole-4-carboxamide], for which the IC50 in experiment [1] was found to be 17 nM; in experiment [2], 138 nM; in experiment [3], 12 nM.

With `CC(O)c1cc(-n2ncc(C(=O)Nc3cnc(-n4nccn4)c(Cl)c3)c2C(F)(F)F)c2ccccc2n1` (stereo not drawn) [Cpd 374, N-(5-chloro-6-(2H-1,2,3-triazol-2-yl)pyridin-3-yl)-1-(2-(1-hydroxyethyl)quinolin-4-yl)-5-(trifluoromethyl)-1H-pyrazole-4-carboxamide], the values for the IC50 in experiment [1], in experiment [2] and in experiment [3] were 72 nM, 87 nM and 40 nM, respectively.

Take `Cc1ncc(NC(=O)c2cnn(-c3cnc(N)c4ccccc34)c2C(F)(F)F)cc1C(F)(F)F` [Cpd 377, 1-(1-aminoisoquinolin-4-yl)-N-(6-methyl-5-(trifluoromethyl)pyridin-3-yl)-5-(trifluoromethyl)-1H-pyrazole-4-carboxamide]: the values for the IC50 in experiment [1], in experiment [2] and in experiment [3] were 52 nM, 457 nM and 56 nM, respectively.

In the case of `O=C(Nc1cnc(-n2nccn2)c(Cl)c1)c1cnn(-c2cnc(C3CCCN3)c3ccccc23)c1C(F)(F)F` (stereo not drawn) [Cpd 380, N-(5-chloro-6-(2H-1,2,3-triazol-2-yl)pyridin-3-yl)-1-(1-(pyrrolidin-2-yl)isoquinolin-4-yl)-5-(trifluoromethyl)-1H-pyrazole-4-carboxamide], the values for the IC50 in experiment [1], in experiment [2] and in experiment [3] were 46 nM, 447 nM and 24 nM, respectively.

Regarding `O=C(Nc1cnc(-n2nccn2)c(Cl)c1)c1cnn(-c2cc(C3CCN3)nc3ccccc23)c1C(F)(F)F` (stereo not drawn) [Cpd 382, 1-(2-(azetidin-2-yl)quinolin-4-yl)-N-(5-chloro-6-(2H-1,2,3-triazol-2-yl)pyridin-3-yl)-5-(trifluoromethyl)-1H-pyrazole-4-carboxamide], the concentration for half-maximal inhibition (IC50) in experiment [1] was found to be 29 nM; in experiment [2], 331 nM; in experiment [3] it was 26 nM.

Take `CNC(=O)c1ncc(-n2ncc(C(=O)Nc3cnc(-n4nccn4)c(Cl)c3)c2C(F)(F)F)c2ccccc12` [Cpd 390, 4-(4-((5-chloro-6-(2H-1,2,3-triazol-2-yl)pyridin-3-yl)carbamoyl)-5-(trifluoromethyl)-1H-pyrazol-1-yl)-N-methylisoquinoline-1-carboxamide]: the results for the IC50 in experiment [1], in experiment [2] and in experiment [3] were 98 nM, 102 nM and 83 nM, respectively.

On to `O=C(Nc1cnc(-n2nccn2)c(Cl)c1)c1cnn(-c2cnc(C(F)F)c3ccccc23)c1C(F)(F)F` [Cpd 394, N-(5-chloro-6-(2H-1,2,3-triazol-2-yl)pyridin-3-yl)-1-(1-(difluoromethyl)isoquinolin-4-yl)-5-(trifluoromethyl)-1H-pyrazole-4-carboxamide], for which the 50% inhibitory concentration (IC50) in experiment [1] is 50 nM; in experiment [2], 95 nM; in experiment [3] it was 36 nM.

On to `O=C(Nc1cnc(-n2nccn2)c(Cl)c1)c1cnn(-c2c[n+]([O-])cc3sccc23)c1C(F)(F)F` [Cpd 409, 4-(4-((5-chloro-6-(2H-1,2,3-triazol-2-yl)pyridin-3-yl)carbamoyl)-5-(trifluoromethyl)-1H-pyrazol-1-yl)thieno[2,3-c]pyridine 6-oxide], for which the half-maximal inhibitory concentration (IC50) worked out at 98 nM in experiment [1], 2290 nM in experiment [2] and 95 nM in experiment [3].

Turning to `Cc1nc(-n2nccn2)c(Cl)cc1NC(=O)c1cnn(-c2c[n+]([O-])cc3sccc23)c1C(F)(F)F` [Cpd 410, 4-(4-((5-chloro-2-methyl-6-(2H-1,2,3-triazol-2-yl)pyridin-3-yl)carbamoyl)-5-(trifluoromethyl)-1H-pyrazol-1-yl)thieno[2,3-c]pyridine 6-oxide], the IC50 in experiment [1] was determined as 93 nM; in experiment [2], 71 nM; in experiment [3], 68 nM.

`N#Cc1cc(-n2ncc(C(=O)Nc3cnc(-n4nccn4)c(Cl)c3)c2C(F)(F)F)c2ccccc2n1` [Cpd 412, N-(5-chloro-6-(2H-1,2,3-triazol-2-yl)pyridin-3-yl)-1-(2-cyanoquinolin-4-yl)-5-(trifluoromethyl)-1H-pyrazole-4-carboxamide]: the IC50 in experiment [1] amounted to 1780 nM; in experiment [2], 22 nM; in experiment [3] it was 912 nM.

Regarding `COc1cc(-n2ncc(C(=O)Nc3cnc(-n4nccn4)c(Cl)c3)c2C(F)(F)F)c2ccccc2n1` [Cpd 417, N-(5-chloro-6-(2H-1,2,3-triazol-2-yl)pyridin-3-yl)-1-(2-methoxyquinolin-4-yl)-5-(trifluoromethyl)-1H-pyrazole-4-carboxamide], the IC50 in experiment [1] is 437 nM; in experiment [2] it was 174 nM; in experiment [3], 309 nM.

Regarding `COc1ccc2c(-n3ncc(C(=O)Nc4cnc(-n5nccn5)c(Cl)c4)c3C(F)(F)F)cccc2n1` [Cpd 420, N-(5-chloro-6-(2H-1,2,3-triazol-2-yl)pyridin-3-yl)-1-(2-methoxyquinolin-5-yl)-5-(trifluoromethyl)-1H-pyrazole-4-carboxamide], the 50% inhibitory concentration (IC50) amounted to 447 nM in experiment [1], 10 nM in experiment [2] and 339 nM in experiment [3].

Turning to `COc1ncc(-n2ncc(C(=O)Nc3cnc(-n4nccn4)c(Cl)c3)c2C(F)(F)F)c2ccccc12` [Cpd 421, N-(5-chloro-6-(2H-1,2,3-triazol-2-yl)pyridin-3-yl)-1-(1-methoxyisoquinolin-4-yl)-5-(trifluoromethyl)-1H-pyrazole-4-carboxamide], the values for the IC50 in experiment [1], in experiment [2] and in experiment [3] were 457 nM, 20 nM and 479 nM, respectively.

On to `CCOc1ncc(-n2ncc(C(=O)Nc3cnc(-n4nccn4)c(Cl)c3)c2C(F)(F)F)c2ccccc12` [Cpd 422, N-(5-chloro-6-(2H-1,2,3-triazol-2-yl)pyridin-3-yl)-1-(1-ethoxyisoquinolin-4-yl)-5-(trifluoromethyl)-1H-pyrazole-4-carboxamide], for which the IC50 is 191 nM in experiment [1], 11 nM in experiment [2] and 174 nM in experiment [3].

Consider `Cn1cc(-n2ncc(C(=O)Nc3cnc(-n4nccn4)c(Cl)c3)c2C(F)(F)F)c2ccccc2c1=O` [Cpd 423, N-(5-chloro-6-(2H-1,2,3-triazol-2-yl)pyridin-3-yl)-1-(2-methyl-1-oxo-1,2-dihydroisoquinolin-4-yl)-5-(trifluoromethyl)-1H-pyrazole-4-carboxamide], for which the concentration for half-maximal inhibition (IC50) in experiment [1] worked out at 123 nM; in experiment [2] it was 54 nM; in experiment [3], 44 nM.

The term IC50 denotes the concentration that gives 50% inhibition.
